According to patent US20020137929A1, “1 - (3-heterocyclylphenyl) isothiourea, -isourea, -guanidine and -amidine herbicidal agents” (Intellectual Property Department, BASF Aktiengesellschaft, priority 1998, published 2002):

Legend:
[1] = tested on: ZEAMX (Corn, Field); assay: Postemergence herbicidal evaluation; format: in vivo, Zea mays; conditions: for ZEAMX herbicidal rating: postemergence
Outline: (§1)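 ~2-wk seedlings; postemergence spray, 40 psi; vehicle 1:1 acetone:water + 0.5% Tween 20; rate ≈0.0156–0.500 kg/ha; greenhouse hold; scored 4–5 wk after treatment, 0–9 scale vs control; repeat tests averaged.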

[2] = tested on: GALAP (Galium); assay: Preemergence herbicidal evaluation; format: in vivo, Galium aparine; conditions: rated 4-5 weeks after treatment
Outline: (§2)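 Rating at 4–5 wk post-spray on a 0–9 visual scale vs control. Application: aqueous acetone, ~0.0156–0.500 kg/ha, to soil surface after seeding, preemergence.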

[3] = tested on: ORYSAT (Rice, Tebonnet); assay: Postemergence herbicidal evaluation; format: in vivo, Oryza sativa, (L.) Tebonnet; conditions: for ORYSAT herbicidal rating: postemergence
Outline: as §1

[4] = tested on: CYPSE (Flatsedge); assay: Postemergence weed control under flooded paddy conditions; format: in vivo, Cyperus serotinus; conditions: postemergence weeds
Outline: (§3)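 Containers holding 3–5 cm weeds and rice at 1.5–2.5 leaves are flooded to 1.5–3 cm above soil. Compound in 50/50 v/v aqueous/acetone is then added directly to the water, about 0.0313–0.500 kg/ha. Plants are kept in the greenhouse and rated 0–9 visually at 3–4 weeks.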

[5] = tested on: CYPIR (Rice Flatsedge); assay: as above; format: in vivo, Cyperus iria; conditions: postemergence weeds
Outline: as §3

[6] = tested on: ABUTH (Velvetleaf); assay: Postemergence herbicidal evaluation; format: in vivo, Abutilon theophrasti; conditions: for ABUTH herbicidal rating: postemergence
Outline: as §1

[7] = tested on: CYPSE (Flatsedge); assay: Preemergence weed control under flooded paddy conditions; format: in vivo, Cyperus serotinus; conditions: rated 3-4 weeks after treatment
Outline: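 Ratings on a 0-9 visual scale cover stand, vigor, malformation, size, chlorosis and overall appearance relative to a control, taken three to four weeks post-treatment. Application was into flood water over freshly sown silt loam at roughly 0.0313 to 0.500 kg/ha.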

[8] = tested on: GLXMAW (Soybean, Williams); assay: Postemergence herbicidal evaluation; format: in vivo, Glycine max, (L.) Merr. cv Williams; conditions: for GLXMAW herbicidal rating: postemergence
Outline: as §1

[9] = tested on: CHEAL (Lambsquarters, Common); assay: Preemergence herbicidal evaluation; format: in vivo, Chenopodium album; conditions: rated 4-5 weeks after treatment
Outline: as §2

[10] = tested on: CASOB (Sicklepod); assay: Preemergence herbicidal evaluation; format: in vivo, Cassia obtusifolia; conditions: rated 4-5 weeks after treatment
Outline: as §2

[11] = tested on: ECHCG (Barnyardgrass); assay: Postemergence herbicidal evaluation; format: in vivo, Echinochloa crus-galli; conditions: for ECHCG herbicidal rating: postemergence
Outline: as §1

[12] = tested on: AMBEL (Ragweed, Common); assay: Preemergence herbicidal evaluation; format: in vivo, Ambrosia artemisifolia; conditions: rated 4-5 weeks after treatment
Outline: as §2

[13] = tested on: AMBEL (Ragweed, Common); assay: Postemergence herbicidal evaluation; format: in vivo, Ambrosia artemisifolia; conditions: for AMBEL herbicidal rating: postemergence
Outline: as §1

[14] = tested on: CHEAL (Lambsquarters, Common); assay: Postemergence herbicidal evaluation; format: in vivo, Chenopodium album; conditions: for CHEAL herbicidal rating: postemergence
Outline: as §1

[15] = rate 0.2500 kg/ha, 3-4 weeks after treatment
[16] = Rate 0.0313 kg/ha, rated 3 to 4 weeks after treatment
[17] = Rate 0.0625 kg/ha, rated 3 to 4 weeks after treatment
[18] = Rate 0.1250 kg/ha, rated 3 to 4 weeks after treatment
[19] = Rate 0.2500 kg/ha, rated 3 to 4 weeks after treatment

Cn1c(C(F)(F)F)cc(=O)n(-c2cc(/N=C3/SCC(=O)N3CC(=O)O)c(Cl)cc2F)c1=O [Compound 52, 2-{{2-Chloro-5-[3,6-dihydro-3-methyl-2,6-dioxo-4-(trifluoromethyl)-1(2H)-pyrimidinyl]-4-fluoro-phenyl}imino}-4-oxo-3-thiazolidineacetic acid]
Postemergence herbicidal rating ZEAMX ([1]; Rate 0.0158 kg/ha): 5.0 | Postemergence herbicidal rating ZEAMX ([1]; Rate 0.0315 kg/ha): 7.5 | Postemergence herbicidal rating ZEAMX ([1]; Rate 0.0630 kg/ha): 7.0 | Preemergence herbicidal rating GALAP ([2]; rate 0.0313 kg/ha): 0.0 | Preemergence herbicidal rating GALAP ([2]; rate 0.0625 kg/ha): 0.0 | Preemergence herbicidal rating GALAP ([2]; rate 0.1250 kg/ha): 0.0 | Preemergence herbicidal rating GALAP ([2]; rate 0.2500 kg/ha): 7.0 | Postemergence herbicidal rating ORYSAT ([3]; Rate 0.0158 kg/ha): 1.0 | Postemergence herbicidal rating ORYSAT ([3]; Rate 0.0315 kg/ha): 1.0 | Postemergence herbicidal rating ORYSAT ([3]; Rate 0.0630 kg/ha): 2.0 | Herbicidal rating CYPSE [4, 15]: 0.0 | Herbicidal rating CYPIR [5, 15]: 2.0 | Postemergence herbicidal rating ABUTH ([6]; Rate 0.0158 kg/ha): 1.0 | Postemergence herbicidal rating ABUTH ([6]; Rate 0.0315 kg/ha): 9.0 | Postemergence herbicidal rating ABUTH ([6]; Rate 0.0630 kg/ha): 9.0 | Herbicidal rating CYPSE ([7]; 0.2500 kg/ha): 0.0 | Postemergence herbicidal rating GLXMAW ([8]; Rate 0.0158 kg/ha): 5.0 | Postemergence herbicidal rating GLXMAW ([8]; Rate 0.0315 kg/ha): 6.0 | Postemergence herbicidal rating GLXMAW ([8]; Rate 0.0630 kg/ha): 6.0 | Preemergence herbicidal rating CHEAL ([9]; rate 0.0313 kg/ha): 0.0 | Preemergence herbicidal rating CHEAL ([9]; rate 0.0625 kg/ha): 6.0 | Preemergence herbicidal rating CHEAL ([9]; rate 0.1250 kg/ha): 9.0 | Preemergence herbicidal rating CHEAL ([9]; rate 0.2500 kg/ha): 9.0 | Preemergence herbicidal rating CASOB ([10]; rate 0.0313 kg/ha): 0.0 | Preemergence herbicidal rating CASOB ([10]; rate 0.0625 kg/ha): 0.0 | Preemergence herbicidal rating CASOB ([10]; rate 0.1250 kg/ha): 1.0 | Preemergence herbicidal rating CASOB ([10]; rate 0.2500 kg/ha): 1.0 | Postemergence herbicidal rating ECHCG ([11]; Rate 0.0158 kg/ha): 1.0 | Postemergence herbicidal rating ECHCG ([11]; Rate 0.0315 kg/ha): 1.0 | Postemergence herbicidal rating ECHCG ([11]; Rate 0.0630 kg/ha): 4.0 | Preemergence herbicidal rating AMBEL ([12]; rate 0.0313 kg/ha): 0.0 | Preemergence herbicidal rating AMBEL ([12]; rate 0.0625 kg/ha): 0.0 | Preemergence herbicidal rating AMBEL ([12]; rate 0.1250 kg/ha): 2.0 | Preemergence herbicidal rating AMBEL ([12]; rate 0.2500 kg/ha): 3.0 | Postemergence herbicidal rating AMBEL ([13]; Rate 0.0158 kg/ha): 1.0 | Postemergence herbicidal rating AMBEL ([13]; Rate 0.0315 kg/ha): 3.0 | Postemergence herbicidal rating AMBEL ([13]; Rate 0.0630 kg/ha): 5.0 | Postemergence herbicidal rating CHEAL ([14]; Rate 0.0158 kg/ha): 4.0 | Postemergence herbicidal rating CHEAL ([14]; Rate 0.0315 kg/ha): 4.0 | Postemergence herbicidal rating CHEAL ([14]; Rate 0.0630 kg/ha): 6.0

CCOC(=O)[C@H](C)N1C(=O)CSC1=Nc1cc(-n2c(=O)cc(C(F)(F)F)n(C)c2=O)c(F)cc1Cl [Compound 76, Ethyl 2-{{2-chloro-5-[3,6-dihydro-3-methyl-2,6-dioxo-4-(trifluoromethyl)-1(2H)-pyrimidinyl]-4-fluorophenyl}imino}-α-methyl-4-oxo-3-thiazolidineacetate, L-]
ZEAMX herbicidal rating ([1]; rate 0.0158 kg/ha): 4.5 | ZEAMX herbicidal rating ([1]; rate 0.0315 kg/ha): 6.0 | ZEAMX herbicidal rating ([1]; rate 0.0630 kg/ha): 7.0 | Preemergence herbicidal rating GALAP ([2]; rate 0.0156 kg/ha): 0.0 | Preemergence herbicidal rating GALAP ([2]; rate 0.0313 kg/ha): 0.0 | Preemergence herbicidal rating GALAP ([2]; rate 0.0625 kg/ha): 0.0 | Preemergence herbicidal rating GALAP ([2]; rate 0.1250 kg/ha): 1.0 | Preemergence herbicidal rating GALAP ([2]; rate 0.2500 kg/ha): 9.0 | ORYSAT herbicidal rating ([3]; rate 0.0158 kg/ha): 3.0 | ORYSAT herbicidal rating ([3]; rate 0.0315 kg/ha): 4.0 | ORYSAT herbicidal rating ([3]; rate 0.0630 kg/ha): 5.0 | Herbicidal rating CYPSE [4, 16]: 2.0 | Herbicidal rating CYPSE [4, 17]: 2.0 | Herbicidal rating CYPSE [4, 18]: 2.0 | Herbicidal rating CYPSE [4, 19]: 3.0 | Herbicidal rating CYPIR [5, 16]: 0.0 | Herbicidal rating CYPIR [5, 17]: 0.0 | Herbicidal rating CYPIR [5, 18]: 0.0 | Herbicidal rating CYPIR [5, 19]: 6.0 | ABUTH herbicidal rating ([6]; rate 0.0158 kg/ha): 9.0 | ABUTH herbicidal rating ([6]; rate 0.0315 kg/ha): 9.0 | ABUTH herbicidal rating ([6]; rate 0.0630 kg/ha): 9.0 | CYPSE herbicidal effect rating ([7]; 0.0313 kg/ha): 2.0 | CYPSE herbicidal effect rating ([7]; 0.0625 kg/ha): 2.0 | CYPSE herbicidal effect rating ([7]; 0.1250 kg/ha): 2.0 | CYPSE herbicidal effect rating ([7]; 0.2500 kg/ha): 3.0 | GLXMAW herbicidal rating ([8]; rate 0.0158 kg/ha): 4.0 | GLXMAW herbicidal rating ([8]; rate 0.0315 kg/ha): 5.5 | GLXMAW herbicidal rating ([8]; rate 0.0630 kg/ha): 6.0 | Preemergence herbicidal rating CHEAL ([9]; rate 0.0156 kg/ha): 9.0 | Preemergence herbicidal rating CHEAL ([9]; rate 0.0313 kg/ha): 9.0 | Preemergence herbicidal rating CHEAL ([9]; rate 0.0625 kg/ha): 9.0 | Preemergence herbicidal rating CHEAL ([9]; rate 0.1250 kg/ha): 9.0 | Preemergence herbicidal rating CHEAL ([9]; rate 0.2500 kg/ha): 9.0 | Preemergence herbicidal rating CASOB ([10]; rate 0.0156 kg/ha): 0.0 | Preemergence herbicidal rating CASOB ([10]; rate 0.0313 kg/ha): 0.0 | Preemergence herbicidal rating CASOB ([10]; rate 0.0625 kg/ha): 0.0 | Preemergence herbicidal rating CASOB ([10]; rate 0.1250 kg/ha): 0.0 | Preemergence herbicidal rating CASOB ([10]; rate 0.2500 kg/ha): 1.0 | ECHCG herbicidal rating ([11]; rate 0.0158 kg/ha): 1.0 | ECHCG herbicidal rating ([11]; rate 0.0315 kg/ha): 1.0 | ECHCG herbicidal rating ([11]; rate 0.0630 kg/ha): 2.0 | Preemergence herbicidal rating AMBEL ([12]; rate 0.0156 kg/ha): 0.0 | Preemergence herbicidal rating AMBEL ([12]; rate 0.0313 kg/ha): 0.0 | Preemergence herbicidal rating AMBEL ([12]; rate 0.0625 kg/ha): 7.0 | Preemergence herbicidal rating AMBEL ([12]; rate 0.1250 kg/ha): 9.0 | Preemergence herbicidal rating AMBEL ([12]; rate 0.2500 kg/ha): 9.0 | AMBEL herbicidal rating ([13]; rate 0.0158 kg/ha): 9.0 | AMBEL herbicidal rating ([13]; rate 0.0315 kg/ha): 9.0 | AMBEL herbicidal rating ([13]; rate 0.0630 kg/ha): 9.0 | CHEAL herbicidal rating ([14]; rate 0.0158 kg/ha): 3.0 | CHEAL herbicidal rating ([14]; rate 0.0315 kg/ha): 7.0 | CHEAL herbicidal rating ([14]; rate 0.0630 kg/ha): 7.0
